Assay results published in patent publication US10953004B2, “Combination therapy for proliferative diseases” (Avexxin AS, priority 2016, dated 2021).

Test system: MDA-MB-468 cell line
Assay: Resazurin viability assay
Format: cell-based, human
Conditions: MDA-MB-468 cells
Description: Cell Culture. The MDA-MB-468 cell line was from ATCC. This cell line was established from a pleural effusion of patient with metastatic breast adenocarcinoma. The cells were maintained in RPMI medium supplemented with 10% (v/v) FBS, 0.3 mg/mL L-glutamine, and 0.1 mg/mL gentamicin at 37° C. in 5% CO2. Sub-culture using trypsin-EDTA was performed every 3-4 days with a split ratio of 1:3-1:6 to ensure actively proliferating cells. Resazurin Viability Assay. Cells were seeded in fully supplemented medium at a density of 7 000 cells per well in 96 well plates. After 24 hrs of cultivation, when the cells were 60% confluent, the medium was replaced with serum free medium to ensure synchronization of the cells and to increase cell sensitivity to treatment. Following 16 hrs of serum starvation, the medium was replaced with fresh serum free medium with or without Compound […], Norway), and NVP-BEZ235 (Cayman Chemicals, US) or solvent (DMSO, Sigma Aldrich, US). The cells were observed under the microscope to evaluate possible morphology changes and signs of stress before the addition of resazurin according to the manufacturers instructions (RnD Systems, UK). Resazurin was metabolized for 2 hrs (37° C., 5% CO2) before fluorescence was read at 544 nm excitation and 590 nm emission wavelengths (BioTek Synergy HT).

In the case of `Cn1c(=O)n(-c2ccc(C(C)(C)C#N)cc2)c2c3cc(-c4cnc5ccccc5c4)ccc3ncc21` [BEZ235], the cytotoxicity at 5 µM (Homo sapiens, serum free medium, 5 μM of each inhibitor, 24 hrs of treatment, read-out: reduction of viability) is reported as roughly 30%, the “toxicity to the cells, each inhibitor alone (initial experiments)” value (25-100 μM, results not shown) is reported as “toxic” and the “signs of cellular stress or cytotoxicity, each inhibitor alone (initial experiments)” value (doses 1-5 μM, results not shown) is reported as “little or no signs of cellular stress of cytotoxicity”.
